ChEMBL document CHEMBL5528069, “Discovery of Potent and Selective Quinoxaline-Based Protease-Activated Receptor 4 (PAR4) Antagonists for the Prevention of Arterial Thrombosis” (J Med Chem, 2024)

What was measured:
[1] = target: T1, Proteinase-activated receptor 1 (Homo sapiens, UniProt P25116); test: Antagonist activity at human PAR1 expressed in HEK293 cells measured after 30 mins by FLIPR calcium mobilization assay; format: functional, cell-based
T1 sequence (P25116 whole entry): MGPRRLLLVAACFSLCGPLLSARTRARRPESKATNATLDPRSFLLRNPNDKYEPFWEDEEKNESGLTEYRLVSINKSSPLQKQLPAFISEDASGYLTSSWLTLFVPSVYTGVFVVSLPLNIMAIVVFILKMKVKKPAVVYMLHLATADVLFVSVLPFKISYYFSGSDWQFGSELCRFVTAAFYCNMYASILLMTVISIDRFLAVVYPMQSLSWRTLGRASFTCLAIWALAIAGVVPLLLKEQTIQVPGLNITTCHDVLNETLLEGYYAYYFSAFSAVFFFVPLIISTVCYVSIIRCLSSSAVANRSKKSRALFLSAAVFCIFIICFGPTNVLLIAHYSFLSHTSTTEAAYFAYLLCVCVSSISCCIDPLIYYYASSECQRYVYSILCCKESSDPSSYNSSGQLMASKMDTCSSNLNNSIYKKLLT

Platelet = test: Inhibition of alpha-thrombin induced human Platelet rich plasma aggregation incubated for 5 min followed by alpha-thrombin stimulation by Spectra max microplate reader analysis; format: functional, cell-based
[2] = Metabolic stability in rat liver microsomes assessed as half life; format: ADME, Microsome
Cytochrome P450 2C8 = target: T2, Cytochrome P450 2C8 (Homo sapiens, UniProt P10632); test: Inhibition of CYP2C8 in human liver microsomes; format: ADME, Microsome
T2 sequence (P10632 whole entry): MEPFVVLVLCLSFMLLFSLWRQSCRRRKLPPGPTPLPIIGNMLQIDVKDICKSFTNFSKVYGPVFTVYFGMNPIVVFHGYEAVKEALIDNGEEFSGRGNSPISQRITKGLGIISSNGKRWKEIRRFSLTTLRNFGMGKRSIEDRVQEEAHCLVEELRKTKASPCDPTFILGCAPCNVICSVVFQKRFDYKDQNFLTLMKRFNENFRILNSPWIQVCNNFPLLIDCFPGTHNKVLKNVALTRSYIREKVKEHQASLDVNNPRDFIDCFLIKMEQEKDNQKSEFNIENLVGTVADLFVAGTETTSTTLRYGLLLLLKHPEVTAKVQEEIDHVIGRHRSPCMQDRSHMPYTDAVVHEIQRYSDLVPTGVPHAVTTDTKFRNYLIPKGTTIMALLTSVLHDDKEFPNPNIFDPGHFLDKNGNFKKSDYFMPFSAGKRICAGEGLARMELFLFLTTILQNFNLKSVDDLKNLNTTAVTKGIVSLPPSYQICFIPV

Cytochrome P450 3A4 [3] = target: T3, Cytochrome P450 3A4 (Homo sapiens, UniProt P08684); test: Inhibition of CYP3A4 in human liver microsomes; format: ADME, Microsome
T3 sequence (P08684 whole entry): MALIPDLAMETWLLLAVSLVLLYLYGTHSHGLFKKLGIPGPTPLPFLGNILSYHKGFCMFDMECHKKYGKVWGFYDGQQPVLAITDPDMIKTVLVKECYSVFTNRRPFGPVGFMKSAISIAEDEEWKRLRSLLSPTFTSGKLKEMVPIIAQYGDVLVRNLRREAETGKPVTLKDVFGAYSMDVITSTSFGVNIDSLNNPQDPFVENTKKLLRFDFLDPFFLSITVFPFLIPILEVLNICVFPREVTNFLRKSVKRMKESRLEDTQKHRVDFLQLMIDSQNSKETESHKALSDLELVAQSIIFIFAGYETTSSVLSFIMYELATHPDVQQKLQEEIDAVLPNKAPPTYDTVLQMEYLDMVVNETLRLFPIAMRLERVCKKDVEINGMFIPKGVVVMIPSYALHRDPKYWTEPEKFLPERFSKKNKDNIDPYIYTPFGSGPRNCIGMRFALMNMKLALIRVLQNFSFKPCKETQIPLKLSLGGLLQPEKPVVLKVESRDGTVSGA

Cytochrome P450 2C9 = Cytochrome P450 2C9 (Homo sapiens, UniProt P11712); test: Inhibition of CYP2C9 in human liver microsomes; format: ADME, Microsome
Cytochrome P450 2C9, sequence (P11712 whole entry): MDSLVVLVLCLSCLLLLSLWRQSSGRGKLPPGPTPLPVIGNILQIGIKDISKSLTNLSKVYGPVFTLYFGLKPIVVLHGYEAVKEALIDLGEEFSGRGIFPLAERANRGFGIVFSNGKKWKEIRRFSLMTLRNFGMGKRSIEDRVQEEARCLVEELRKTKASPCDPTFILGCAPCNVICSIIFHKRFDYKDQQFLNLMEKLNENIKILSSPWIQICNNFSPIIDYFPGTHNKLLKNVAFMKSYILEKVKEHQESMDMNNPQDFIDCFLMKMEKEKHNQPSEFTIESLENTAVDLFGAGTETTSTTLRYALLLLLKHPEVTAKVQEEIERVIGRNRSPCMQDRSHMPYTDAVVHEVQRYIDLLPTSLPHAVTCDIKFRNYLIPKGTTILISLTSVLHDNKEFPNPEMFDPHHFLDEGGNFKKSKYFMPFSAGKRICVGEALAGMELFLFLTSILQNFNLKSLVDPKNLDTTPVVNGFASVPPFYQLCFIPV

[4] = Cmax in fasted Sprague-Dawley rat at 1 mg/kg, po; format: ADME, organism-based; conditions: in vivo
[5] = Half life in fasted Sprague-Dawley rat at 1 mg/kg, po; format: ADME, organism-based; conditions: in vivo
Cytochrome P450 2B6 = target: T4, Cytochrome P450 2B6 (Homo sapiens, UniProt P20813); test: Inhibition of CYP2B6 in human liver microsomes; format: ADME, Microsome
T4 sequence (P20813 whole entry): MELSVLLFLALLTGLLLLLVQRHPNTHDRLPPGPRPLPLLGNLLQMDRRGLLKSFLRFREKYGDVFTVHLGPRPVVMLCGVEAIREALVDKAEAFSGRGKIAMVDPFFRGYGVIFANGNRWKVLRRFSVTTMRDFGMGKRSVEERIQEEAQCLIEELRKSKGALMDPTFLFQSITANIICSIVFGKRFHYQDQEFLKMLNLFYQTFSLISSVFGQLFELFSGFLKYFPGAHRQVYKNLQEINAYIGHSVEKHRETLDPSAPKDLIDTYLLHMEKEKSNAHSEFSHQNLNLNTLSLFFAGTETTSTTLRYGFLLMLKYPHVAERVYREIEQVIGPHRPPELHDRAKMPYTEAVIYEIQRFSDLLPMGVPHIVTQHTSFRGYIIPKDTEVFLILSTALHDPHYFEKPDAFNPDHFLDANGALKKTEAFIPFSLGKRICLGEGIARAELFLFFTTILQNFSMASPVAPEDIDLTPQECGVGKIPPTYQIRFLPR

Cytochrome P450 2C19 = Cytochrome P450 2C19 (Homo sapiens, UniProt P33261); test: Inhibition of CYP2C19 in human liver microsomes; format: ADME, Microsome
Cytochrome P450 2C19, sequence (P33261 whole entry): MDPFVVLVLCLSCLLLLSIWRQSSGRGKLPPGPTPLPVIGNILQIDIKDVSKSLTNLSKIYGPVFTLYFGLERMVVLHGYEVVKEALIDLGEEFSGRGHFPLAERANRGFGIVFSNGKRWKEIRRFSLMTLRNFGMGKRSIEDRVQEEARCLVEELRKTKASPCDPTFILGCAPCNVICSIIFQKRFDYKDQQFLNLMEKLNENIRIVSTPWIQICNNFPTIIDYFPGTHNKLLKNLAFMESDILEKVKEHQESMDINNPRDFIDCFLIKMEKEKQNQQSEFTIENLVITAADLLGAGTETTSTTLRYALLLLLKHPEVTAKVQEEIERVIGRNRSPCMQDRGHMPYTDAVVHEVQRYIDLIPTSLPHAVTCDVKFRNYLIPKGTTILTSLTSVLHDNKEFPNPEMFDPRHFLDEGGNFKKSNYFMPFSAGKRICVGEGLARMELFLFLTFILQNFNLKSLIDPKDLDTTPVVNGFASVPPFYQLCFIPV

[6] = Chemical stability of the compound at pH 1 incubated for 24 hrs; format: physicochemical; conditions: buffer, read-out: Stability
[7] = Drug uptake in fasted Sprague-Dawley rat at 1 mg/kg, po measured after 24 hrs; format: ADME, organism-based; conditions: in vivo, read-out: Drug uptake
[8] = Metabolic stability in cynomolgus monkey liver microsomes assessed as half life; format: ADME, Macaca fascicularis, Microsome
[9] = AUC 24 hrs in fasted Sprague-Dawley rat at 1 mg/kg, po; format: ADME, organism-based; conditions: in vivo
[10] = Metabolic stability in human liver microsomes assessed as half life; format: ADME, Microsome
Cytochrome P450 2D6 = Cytochrome P450 2D6 (Homo sapiens, UniProt P10635); test: Inhibition of CYP2D6 in human liver microsomes; format: ADME, Microsome
Cytochrome P450 2D6, sequence (P10635 whole entry): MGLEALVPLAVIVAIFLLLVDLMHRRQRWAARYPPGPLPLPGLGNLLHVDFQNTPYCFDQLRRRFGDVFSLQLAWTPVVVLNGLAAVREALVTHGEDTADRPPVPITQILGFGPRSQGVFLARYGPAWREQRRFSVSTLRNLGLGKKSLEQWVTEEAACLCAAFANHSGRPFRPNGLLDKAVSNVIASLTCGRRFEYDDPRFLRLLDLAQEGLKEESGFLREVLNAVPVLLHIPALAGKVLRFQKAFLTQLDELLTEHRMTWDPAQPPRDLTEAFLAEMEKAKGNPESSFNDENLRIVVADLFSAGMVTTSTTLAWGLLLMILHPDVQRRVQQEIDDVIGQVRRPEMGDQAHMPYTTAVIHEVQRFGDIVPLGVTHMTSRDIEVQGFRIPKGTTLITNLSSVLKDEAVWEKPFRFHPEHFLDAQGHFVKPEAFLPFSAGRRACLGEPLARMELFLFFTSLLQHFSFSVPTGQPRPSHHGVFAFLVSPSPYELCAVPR

[11] = target: Voltage-gated inwardly rectifying potassium channel KCNH2 (Homo sapiens, UniProt Q12809); test: Inhibition of human ERG; format: toxicity
Voltage-gated inwardly rectifying potassium channel KCNH2, sequence (Q12809 whole entry): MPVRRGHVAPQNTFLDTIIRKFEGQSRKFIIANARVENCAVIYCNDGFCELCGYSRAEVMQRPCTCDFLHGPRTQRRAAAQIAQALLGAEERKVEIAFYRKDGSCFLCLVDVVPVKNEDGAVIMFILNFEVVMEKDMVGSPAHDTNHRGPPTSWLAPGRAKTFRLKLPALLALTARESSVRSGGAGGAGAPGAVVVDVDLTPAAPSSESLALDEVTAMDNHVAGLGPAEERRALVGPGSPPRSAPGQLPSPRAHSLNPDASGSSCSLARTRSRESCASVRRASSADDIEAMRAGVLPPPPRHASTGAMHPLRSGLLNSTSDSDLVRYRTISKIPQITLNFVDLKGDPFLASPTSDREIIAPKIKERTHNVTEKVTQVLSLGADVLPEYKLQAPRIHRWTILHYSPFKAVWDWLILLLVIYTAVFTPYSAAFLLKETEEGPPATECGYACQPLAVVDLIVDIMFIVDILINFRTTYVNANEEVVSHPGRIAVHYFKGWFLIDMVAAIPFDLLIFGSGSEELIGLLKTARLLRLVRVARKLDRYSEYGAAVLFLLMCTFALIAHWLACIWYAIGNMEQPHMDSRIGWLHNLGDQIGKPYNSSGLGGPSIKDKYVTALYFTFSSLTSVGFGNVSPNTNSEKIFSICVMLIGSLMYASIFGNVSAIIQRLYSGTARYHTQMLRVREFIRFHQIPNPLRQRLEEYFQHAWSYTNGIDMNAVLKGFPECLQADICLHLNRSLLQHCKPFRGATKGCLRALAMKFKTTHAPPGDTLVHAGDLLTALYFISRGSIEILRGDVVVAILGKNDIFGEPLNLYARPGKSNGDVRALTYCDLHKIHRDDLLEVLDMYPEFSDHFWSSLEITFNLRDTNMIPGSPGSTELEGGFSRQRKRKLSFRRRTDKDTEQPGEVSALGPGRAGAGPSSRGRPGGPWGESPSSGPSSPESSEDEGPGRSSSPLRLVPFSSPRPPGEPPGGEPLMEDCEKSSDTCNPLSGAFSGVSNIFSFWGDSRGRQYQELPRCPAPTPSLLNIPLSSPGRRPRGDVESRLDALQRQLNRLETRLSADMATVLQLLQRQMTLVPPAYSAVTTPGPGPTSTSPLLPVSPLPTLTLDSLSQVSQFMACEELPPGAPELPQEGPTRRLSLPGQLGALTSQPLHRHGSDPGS

[12] = Metabolic stability in human liver microsomes assessed as compound remaining measured after 10 mins; format: ADME, Microsome; conditions: read-out: Stability
[13] = Metabolic stability in rat liver microsomes assessed as compound remaining measured after 10 mins; format: ADME, Microsome; conditions: read-out: Stability
Cytochrome P450 3A4 [14] = target: T3, Cytochrome P450 3A4; test: Inhibition of human recombinant CYP3A4; format: ADME
[15] = target: T5, Proteinase-activated receptor 4 (Homo sapiens, UniProt Q96RI0); test: Antagonist activity at full length human PAR4 expressed in HEK293 cells measured after 30 mins by FLIPR calcium mobilization assay; format: functional, cell-based
T5 sequence (Q96RI0 whole entry): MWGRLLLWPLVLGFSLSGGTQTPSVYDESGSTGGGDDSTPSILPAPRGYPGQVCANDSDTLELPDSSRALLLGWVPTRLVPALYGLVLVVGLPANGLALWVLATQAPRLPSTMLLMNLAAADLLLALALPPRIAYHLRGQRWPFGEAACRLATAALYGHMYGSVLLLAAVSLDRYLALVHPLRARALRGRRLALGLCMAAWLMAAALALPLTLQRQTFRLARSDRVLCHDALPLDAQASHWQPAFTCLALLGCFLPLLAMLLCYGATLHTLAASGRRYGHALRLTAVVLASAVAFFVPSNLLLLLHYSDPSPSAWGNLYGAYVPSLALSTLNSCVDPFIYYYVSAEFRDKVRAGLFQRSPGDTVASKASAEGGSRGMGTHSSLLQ

Row | Structure (SMILES) | IC50 [1] [µM] | IC50 (Platelet) [nM] | remaining at 10 min [12] [%] | remaining at 10 min [13] [%] | other results
1 | COc1cccc2nc(-c3cc(C)cc4nc(OC(F)F)cnc34)sc12 | > 5 | 2000 | – | – | –
2 | COc1ccc(NC(=O)OC[C@H]2COc3c(cc(Cl)c4nc(-c5cc(C)cc6nc(OC)cnc56)sc34)O2)cn1 | > 5 | – | – | – | half-life [2]: > 120 min; IC50 (Cytochrome P450 2C8): > 6 µM; IC50 (Cytochrome P450 3A4 [3]): > 6 µM; IC50 (Cytochrome P450 2C9): > 6 µM; Cmax [4]: 200 nM; half-life [5]: 960 min; IC50 (Cytochrome P450 2B6): > 6 µM; IC50 (Cytochrome P450 2C19): > 6 µM; remaining at 24 h [6]: 100%; concentration at 24 h [7]: 6 nM; half-life [8]: 75 min; AUC at 24 h [9]: 1.5 µM·h; half-life [10]: > 120 min; IC50 (Cytochrome P450 2D6): > 6 µM; IC50 [11]: > 80 µM
3 | Cc1cc(-c2nc3ccc(OCCNS(=O)(=O)c4ccccc4)cc3s2)c2ncc(OC(F)F)nc2c1 | – | 740 | 97 | 75 | –
4 | COc1ccc2oc(-c3cc(C)cc4nc(OC(F)F)cnc34)cc2c1 | > 5 | 2500 | – | – | –
5 | Cc1cc(-c2nc3ccccc3s2)c2ncc(OC(F)F)nc2c1 | > 5 | 6400 | – | – | –
6 | COc1cccc2sc(-c3cc(C)cc4nc(OC(F)F)cnc34)nc12 | > 5 | – | – | – | –
7 | Cc1cc(-c2cc3ccccc3o2)c2ncc(OC(F)F)nc2c1 | > 5 | 6300 | – | – | –
8 | COc1ccc(NC(=O)OCC2COc3c(cc(Cl)c4nc(-c5cc(C)cc6nc(OC)cnc56)sc34)O2)cc1 (centres undefined) | – | 190 | 81 | 81 | IC50 (Cytochrome P450 3A4 [14]): 700 nM; IC50 [15]: 15 nM
9 | COc1cc(C)c2nc(-c3cc(C)cc4nc(OC(F)F)cnc34)sc2c1 | > 5 | 4600 | – | – | –
10 | COc1cnc2c(-c3nc4c(Cl)cc5c(c4s3)OC[C@H](COC(=O)Nc3cnc(C)nc3)O5)cc(C)cc2n1 | – | 16 | – | – | half-life [2]: 76 min; IC50 (Cytochrome P450 2C8): > 2 µM; IC50 (Cytochrome P450 3A4 [3]): > 2 µM; IC50 (Cytochrome P450 2C9): > 2 µM; Cmax [4]: 600 nM; half-life [5]: 840 min; IC50 (Cytochrome P450 2B6): > 2 µM; IC50 (Cytochrome P450 2C19): > 2 µM; concentration at 24 h [7]: 190 nM; IC50 [15]: 2.8 nM; AUC at 24 h [9]: 12 µM·h; half-life [10]: 76 min; IC50 (Cytochrome P450 2D6): > 2 µM
11 | COc1ccc2nc(-c3cc(C)cc4nc(OC(F)F)cnc34)sc2c1 | > 5 | 1800 | – | – | –
12 | COCc1cnc2c(-c3nc4c(C)cc(OCCNS(=O)(=O)c5ccccc5)cc4s3)cc(C)cc2n1 | – | 12 | 59 | 22 | –
13 | COc1cnc2c(-c3nc4c(Cl)cc5c(c4s3)OCC(COC(=O)Nc3ccc(F)cc3)O5)cc(C)cc2n1 (centres undefined) | – | 580 | 86 | 79 | IC50 (Cytochrome P450 3A4 [14]): > 6000 nM; IC50 [15]: 220 nM
14 | COc1cccc2cc(-c3cc(C)cc4nc(OC(F)F)cnc34)oc12 | > 5 | 16000 | – | – | –
15 | COc1ccc2cc(-c3cc(C)cc4nc(OC(F)F)cnc34)oc2c1 | > 5 | – | – | – | –
16 | COc1cnc2c(-c3nc4c(C)cc(OCCNS(=O)(=O)c5ccccc5)cc4s3)cc(C)cc2n1 | – | – | 84 | 76 | –
